From patent US20110039762A1, “TARGETED ANTIMICROBIAL MOIETIES” (C3 JIAN, INC., priority 2009, published 2011)
“Also recorded” adds a separate entry of the source.

Columns and labels:
[1] = tested on: microorganisms (e.g., bacteria, yeasts, fungi); experiment: Targeting peptide binding to target microorganisms (Table 3); details: preferably 1x PBS; for Target(s) (microorganisms bound by the targeting peptide): peptide binding in aqueous buffers varied by peptide solubility
microorganisms = experiment: Peptides having multiple activities (targeting/binding, antimicrobial, growth or phenotype altering)
Text: In certain embodiments, peptides described herein can have multiple activities. Thus for example, a peptide can have both binding/targeting activity and antimicrobial activity. Such peptides can be used, e.g., in a chimeric construct, for any or all of these properties. Thus, for example, a peptide designated “B” in Table 8 can be used as a targeting peptide. If it is also designated G or M it can also be used for antimicrobial activity.

S. epidermidis = experiment: Kill or inhibit growth/proliferation; morphology, biofilm and growth disruption (Tables 5, 6); format: cell-based, Staphylococcus epidermidis; design: key: A: Peptide aggregates; B: Less hyphal formation; Clumps; Diffuse clumps and small polyps; F: Diffuse growth; H: Thin; I: Growth inhibition; Microcolony formation; Rippled; Small polyps; Thick; W: Halo formation on top, microlonies on bottom; note: test concentration or dose not given here
MRSA = experiment: as above; format: cell-based, Methicillin-resistant Staphylococcus aureus; design: key: A: Peptide aggregates; B: Less hyphal formation; Clumps; Diffuse clumps and small polyps; F: Diffuse growth; H: Thin; I: Growth inhibition; Microcolony formation; Rippled; Small polyps; Thick; W: Halo formation on top, microlonies on bottom
S. pneumoniae = experiment: as above; format: cell-based, Streptococcus pneumoniae; design: key: A: Peptide aggregates; B: Less hyphal formation; Clumps; Diffuse clumps and small polyps; F: Diffuse growth; H: Thin; I: Growth inhibition; Microcolony formation; Rippled; Small polyps; Thick; W: Halo formation on top, microlonies on bottom
[2] = microorganism(s) the targeting peptide binds, binding in aqueous buffers depending on peptide solubility
[3] = microorganism the targeting peptide binds, binding in aqueous buffers varied by peptide solubility
[4] = microorganism(s) the targeting peptide binds, peptide binding conducted in aqueous buffers varied by peptide solubility
Throughout, for Organism, effect (morphology, biofilm and growth disruption): test concentration or dose not given here.
Throughout, for Organism, effect: test concentration or dose not given here.

## PF-123: peptide having multiple activities (TTRPQVAEDRQLDDALKETFPASDPISP; Peptide with targeting and/or antimicrobial activity)
[1]; [2]
  Target(s): M. luteus; also recorded: E. coli
microorganisms
  Activities: G B
S. epidermidis
  Organism, effect: S. epidermidis (M)

## PF-157: peptide having multiple activities (HTAVVWLAGVSGCVALSHCEPA; Peptide with targeting and/or antimicrobial activity)
microorganisms
  Activities: G B
S. epidermidis
  Organism, effect: S. epidermidis (M)

## PF-192: peptide having multiple activities (VEEDEAPPPHY; Peptide with targeting and/or antimicrobial activity)
[1]; [2]
  Target(s): S. epidermidis; also recorded: M. luteus; also recorded: P. aeruginosa; also recorded: C. albicans; also recorded: E. faecalis; also recorded: C. jeikeium
microorganisms
  Activities: G B
S. epidermidis
  Organism, effect: S. epidermidis (D)

## PF-015: peptide having multiple activities (chain 1 SIDKRNLYNLKYYE; chain 2 SIDKRNLYNLKYYE; Peptide with targeting and/or antimicrobial activity)
[1]; [3]
  Target(s): E. faecalis; also recorded: C. jeikeium
microorganisms
  Activities: G B
MRSA
  Organism, effect: MRSA (W)

## PF-310 (GVALIGTILVPLLSGLFG; Peptide with targeting and/or antimicrobial activity)
S. epidermidis
  Organism, effect: S. epidermidis (C)

## PF-658 (chain 1 PTTPPPTTPPEIPTGGTVIST; chain 2 PTTPPPTTPPEIPTGGTVIST; Peptide with targeting and/or antimicrobial activity)
[1]
  Target(s) (microorganisms bound by the targeting peptide): Mycobacteria spp
S. pneumoniae
  Organism, effect (morphology, biofilm and growth disruption): S. pneumoniae (H)
MRSA
  Organism, effect (morphology, biofilm and growth disruption): MRSA (R)

## PF-156: peptide having multiple activities (LITAEQPATAPIAGK; Peptide with targeting and/or antimicrobial activity)
[1]; [2]
  Target(s): S. epidermidis; also recorded: C. jeikeium
microorganisms
  Activities: G B
MRSA
  Organism, effect: MRSA (H)

## PF-539: peptide having multiple activities (chain 1 SIILTKKKRRKIPLSIDSQIYKYTFKQ; chain 2 SIILTKKKRRKIPLSIDSQIYKYTFKQ; Peptide with targeting and/or antimicrobial activity)
S. pneumoniae
  Organism, effect: S. pneumoniae (A)
microorganisms
  Activities: G B
MRSA
  Organism, effect: MRSA (H)

## PF-290 (MVHDMTNGTLIIVKH; Peptide with targeting and/or antimicrobial activity)
S. epidermidis
  Organism, effect: S. epidermidis (C)

## PF-551: peptide having multiple activities (chain 1 QVKEKRREIELQFRDAEKKLEASVQAE; chain 2 QVKEKRREIELQFRDAEKKLEASVQAE; Peptide with targeting and/or antimicrobial activity)
[1]; [4]
  Target(s): S. pneumoniae
microorganisms
  Activities: G B
MRSA
  Organism, effect: MRSA (C)

## PF-764: peptide having multiple activities (GYFEPGKRD; Peptide with targeting and/or antimicrobial activity)
[1]
  Target(s) (microorganisms bound by the targeting peptide): S. epidermidis and M. luteus and C. albicans and MRSA and S. pneumoniae and E. faecalis and C. jeikeium
S. pneumoniae
  Organism, effect (morphology, biofilm and growth disruption): S. pneumoniae (H)
microorganisms
  Activities: G B
MRSA
  Organism, effect (morphology, biofilm and growth disruption): MRSA (D)

## PF-149: peptide having multiple activities (GKVSVLTRVPRSLGGAPANQ; Peptide with targeting and/or antimicrobial activity)
[1]; [2]
  Target(s): S. epidermidis and M. luteus and E. coli and MRSA and C. jeikeium
microorganisms
  Activities: G B
MRSA
  Organism, effect: MRSA (H)

## PF-382: peptide having multiple activities (chain 1 KYKCSWCKRVYTLRKDHKTAR; chain 2 KYKCSWCKRVYTLRKDHKTAR; Peptide with targeting and/or antimicrobial activity)
[1]; [2]
  Target(s): S. epidermidis; also recorded: B. subtilis; also recorded: B. fragilis; also recorded: E. coli; also recorded: P. aeruginosa; also recorded: E. faecalis; also recorded: C. jeikeium; also recorded: C. jejuni
microorganisms
  Activities: G B
MRSA
  Organism, effect: MRSA (M)

## PF-045: peptide having multiple activities (chain 1 LDINDYRSTY; chain 2 LDINDYRSTY; Peptide with targeting and/or antimicrobial activity)
[1]; [3]
  Target(s): S. epidermidis; also recorded: E. coli; also recorded: E. faecalis; also recorded: C. jejuni
microorganisms
  Activities: G B
MRSA
  Organism, effect: MRSA (S)

## PF-029: peptide having multiple activities (chain 1 NSTNE; chain 2 NSTNE; Peptide with targeting and/or antimicrobial activity)
[1]; [3]
  Target(s): S. epidermidis; also recorded: M. luteus; also recorded: C. albicans; also recorded: C. jejuni
microorganisms
  Activities: G B
MRSA
  Organism, effect: MRSA (M)

## PF-738: peptide having multiple activities (KSGATSAASGAKSGASS; Peptide with targeting and/or antimicrobial activity)
[1]
  Target(s) (microorganisms bound by the targeting peptide): S. epidermidis; also recorded: C. albicans; also recorded: C. jeikeium
microorganisms
  Activities: G B
MRSA
  Organism, effect (morphology, biofilm and growth disruption): MRSA (M)

## PF-031: peptide having multiple activities (chain 1 MPHHSTTSSRIVVPAHQSNMASTPNLSITP; chain 2 MPHHSTTSSRIVVPAHQSNMASTPNLSITP; Peptide with targeting and/or antimicrobial activity)
[1]; [3]
  Target(s): M. luteus; also recorded: C. albicans
microorganisms
  Activities: G B
MRSA
  Organism, effect: MRSA (M)

## PF-026: peptide having multiple activities (chain 1 SIHFIN; chain 2 SIHFIN; Peptide with targeting and/or antimicrobial activity)
[1]; [3]
  Target(s): S. epidermidis and M. luteus and P. mirabilis and C. albicans and MRSA and E. faecalis and C. jeikeium
microorganisms
  Activities: G B
MRSA
  Organism, effect: MRSA (M)

## PF-293 (YDPLK; Peptide with targeting and/or antimicrobial activity)
S. epidermidis
  Organism, effect: S. epidermidis (C)

## PF-642: peptide having multiple activities (chain 1 FTTPMIGIPAGLLGGSYYLKRREEKGK; chain 2 FTTPMIGIPAGLLGGSYYLKRREEKGK; Peptide with targeting and/or antimicrobial activity)
[1]
  Target(s) (microorganisms bound by the targeting peptide): M. luteus and MRSA and C. jeikeium
microorganisms
  Activities: G B
MRSA
  Organism, effect: MRSA (M)

## PF-017: peptide having multiple activities (chain 1 ESIIE; chain 2 ESIIE; Peptide with targeting and/or antimicrobial activity)
[1]; [3]
  Target(s): E. coli
microorganisms
  Activities: G B
MRSA
  Organism, effect: MRSA (M)

## MQIFYIKTKIFLSFFLFLLIFSQCFYKIEE [PF-442]
[1]; [4]
  Target(s): S. epidermidis; also recorded: E. coli; also recorded: C. albicans; also recorded: S. pneumoniae; also recorded: E. faecalis
S. pneumoniae
  Organism, effect: S. pneumoniae (C)
microorganisms
  Activities: G B
MRSA
  Organism, effect: MRSA (M)

## PF-035: peptide having multiple activities (chain 1 SFYESY; chain 2 SFYESY; Peptide with targeting and/or antimicrobial activity)
[1]; [3]
  Target(s): S. epidermidis and M. luteus and E. coli and C. albicans and MRSA and C. jeikeium and C. jejuni
microorganisms
  Activities: G B
MRSA
  Organism, effect: MRSA (M)

## PF-694 (chain 1 DLIRPLYSMSAPSVA; chain 2 DLIRPLYSMSAPSVA; Peptide with targeting and/or antimicrobial activity)
[1]
  Target(s) (microorganisms bound by the targeting peptide): Mycobacteria spp
S. pneumoniae
  Organism, effect (morphology, biofilm and growth disruption): S. pneumoniae (A)
MRSA
  Organism, effect (morphology, biofilm and growth disruption): MRSA (R)
